Legend:
[1] = tested on: Delta and mu opioid receptors (Mus musculus); test: Selectivity for delta opioid receptor over mu opioid receptor
[2] = tested on: Delta (Mus musculus) and kappa (Rattus norvegicus) opioid receptors; test: Selectivity for delta opioid receptor over kappa opioid receptor
[3] = molecular target: Mu-type opioid receptor (Mus musculus) (UniProt P42866); test: Inhibition of (-)-[9-3H]bremazocine binding to mu opioid receptor at 10 uM
[4] = molecular target: Delta-type opioid receptor (Mus musculus) (UniProt P32300); test: Inhibition of (-)-[9-3H]bremazocine binding to delta opioid receptor at 10 uM
Chain of Delta-type opioid receptor (Mus musculus) (P32300 whole entry, looked up): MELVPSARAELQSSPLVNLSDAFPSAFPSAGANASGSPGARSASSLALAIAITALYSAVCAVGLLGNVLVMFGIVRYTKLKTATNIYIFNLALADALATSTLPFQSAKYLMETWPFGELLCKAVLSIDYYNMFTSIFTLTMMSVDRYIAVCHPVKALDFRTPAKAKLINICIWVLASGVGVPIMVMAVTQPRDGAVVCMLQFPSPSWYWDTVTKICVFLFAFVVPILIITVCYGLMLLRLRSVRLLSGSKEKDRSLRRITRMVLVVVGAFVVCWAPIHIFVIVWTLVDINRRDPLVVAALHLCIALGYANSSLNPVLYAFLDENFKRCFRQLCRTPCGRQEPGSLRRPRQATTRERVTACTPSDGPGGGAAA

[5] = molecular target: Kappa-type opioid receptor (Rattus norvegicus) (UniProt P34975); test: Inhibition of (-)-[9-3H]bremazocine binding to kappa opioid receptor at 10 uM
Chain of Kappa-type opioid receptor (Rattus norvegicus) (P34975 whole entry, looked up): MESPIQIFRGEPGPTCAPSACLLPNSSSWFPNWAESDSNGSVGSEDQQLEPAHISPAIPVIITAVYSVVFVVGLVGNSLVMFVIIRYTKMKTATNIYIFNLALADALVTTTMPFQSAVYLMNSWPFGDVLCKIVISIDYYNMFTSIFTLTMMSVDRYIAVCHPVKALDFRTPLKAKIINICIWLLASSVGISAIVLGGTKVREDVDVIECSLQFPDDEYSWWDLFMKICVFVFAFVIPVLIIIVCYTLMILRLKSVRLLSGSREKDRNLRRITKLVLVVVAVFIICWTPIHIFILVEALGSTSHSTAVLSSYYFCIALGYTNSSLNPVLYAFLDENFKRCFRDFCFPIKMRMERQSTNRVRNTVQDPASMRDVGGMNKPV

[6] = molecular target: Mu-type opioid receptor (Mus musculus) (UniProt P42866); test: Inhibition of (-)-[9-3H]bremazocine binding to mu opioid receptor expressed in HEK293 cells
[7] = molecular target: Delta-type opioid receptor (Mus musculus) (UniProt P32300); test: Inhibition of (-)-[9-3H]bremazocine binding to delta opioid receptor expressed in HEK293 cells
[8] = molecular target: Kappa-type opioid receptor (Rattus norvegicus) (UniProt P34975); test: Inhibition of (-)-[9-3H]bremazocine binding to kappa opioid receptor expressed in HEK293 cells

Chain of Mu-type opioid receptor (Mus musculus) (P42866 whole entry, looked up): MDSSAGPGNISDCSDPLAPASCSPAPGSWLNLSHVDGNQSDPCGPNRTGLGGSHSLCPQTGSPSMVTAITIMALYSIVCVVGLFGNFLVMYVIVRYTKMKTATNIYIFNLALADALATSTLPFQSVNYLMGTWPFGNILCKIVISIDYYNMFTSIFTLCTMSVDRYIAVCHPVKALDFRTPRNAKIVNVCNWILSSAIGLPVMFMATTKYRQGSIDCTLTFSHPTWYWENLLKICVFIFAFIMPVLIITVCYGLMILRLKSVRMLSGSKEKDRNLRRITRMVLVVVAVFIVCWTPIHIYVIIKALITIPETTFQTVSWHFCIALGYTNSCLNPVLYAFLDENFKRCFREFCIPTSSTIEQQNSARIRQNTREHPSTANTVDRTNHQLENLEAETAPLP

SMILES	Selectivity ratio [1]	Selectivity ratio [2]	inhibition [3] [%]	inhibition [4] [%]	inhibition [5] [%]	Ki [6] [µM]	Ki [7] [µM]	Ki [8] [µM]
CN(C)c1nnc(-c2cccc(-c3ccccc3)c2)n1-c1cccc(O)c1	> 66.6	> 66.6	23	86	8	> 10	0.15	> 10
COc1cccc(-n2cnnc2-c2ccc(C(C)(C)C)cc2)c1	–	–	9	–	8	> 10	–	> 10
CC(C)(C)c1cccc(-c2nncn2-c2cccc(O)c2)c1	3.7	6.52	78	91	66	0.85	0.23	1.5
CN(C)c1nnc(-c2cccc(C(C)(C)C)c2)n1-c1cccc(O)c1	–	–	19	76	6	> 10	1.05	> 10
CC(C)(C)c1ccc(-c2nncn2-c2cccc(O)c2)cc1	–	–	16	54	16	> 10	10	> 10
CN(C)Cc1nnc(-c2cccc(C(C)(C)C)c2)n1-c1cccc(O)c1	–	–	–	65	–	–	2.6	–
CN(C)c1nnc(-c2ccc(C(C)(C)C)cc2)n1-c1ccc(O)cc1	–	–	8	27	21	> 10	> 10	> 10
CN(C)CCc1nnc(-c2ccc(C(C)(C)C)cc2)n1-c1cccc(O)c1	–	–	23	90	19	> 10	0.9	> 10
COc1cccc(-n2cnnc2-c2cccc(C(C)(C)C)c2)c1	–	–	–	–	5	–	–	> 10
CN(C)c1nnc(-c2ccc(-c3ccccc3)cc2)n1-c1cccc(O)c1	–	–	15	82	11	> 10	0.13	> 10
CN(C)c1nnc(-c2ccc3ccccc3c2)n1-c1cccc(O)c1	> 20.8	> 20.8	48	68	27	> 10	0.48	> 10
CN1CCN(c2nnc(-c3ccc(C(C)(C)C)cc3)n2-c2cccc(O)c2)CC1	–	–	5	18	12	> 10	> 10	> 10
CN(C)c1nnc(-c2ccc(C(C)(C)C)cc2)n1-c1cccc(O)c1	80	> 200	32	94	6	4	0.05	> 10
Oc1cccc(-n2cnnc2-c2ccc3ccccc3c2)c1	> 4.76	> 4.76	48	68	27	> 10	2.1	> 10
Oc1cccc(-n2cnnc2-c2ccc(-c3ccccc3)cc2)c1	–	–	60	75	46	> 10	1.5	> 10
Oc1cccc(-n2cnnc2-c2cccc(-c3ccccc3)c2)c1	7.14	> 71.4	84	84	42	–	–	> 10
CN(C)Cc1nnc(-c2ccc(C(C)(C)C)cc2)n1-c1cccc(O)c1	–	–	–	–	9	–	–	> 10
COc1cccc(-n2c(-c3ccc(C(C)(C)C)cc3)nnc2N(C)C)c1	–	–	50	28	3	> 10	> 10	> 10
